Test results: the NIST ThermoML archive (doi:10.1016/j.jct.2005.09.005)
± gives the expanded uncertainty stated by the source.

Assay: molar heat capacity at constant pressure
Details: 101.33 kPa, Vacuum adiabatic calorimetry

[2H]O[2H] [water-d2]
molar heat capacity at constant pressure [J/K/mol]
Details | Crystal | Liquid
5 K | 0.0363 ± 0.01 | –
6.58 K | 0.0659 ± 0.011 | –
7.08 K | 0.141 ± 0.012 | –
7.56 K | 0.12 ± 0.011 | –
8.12 K | 0.158 ± 0.012 | –
8.61 K | 0.19 ± 0.012 | –
9.07 K | 0.222 ± 0.012 | –
9.51 K | 0.261 ± 0.012 | –
9.94 K | 0.305 ± 0.012 | –
10 K | 0.315 ± 0.012 | –
10.37 K | 0.358 ± 0.013 | –
10.8 K | 0.407 ± 0.013 | –
11.22 K | 0.462 ± 0.014 | –
11.65 K | 0.523 ± 0.014 | –
12.68 K | 0.659 ± 0.015 | –
13.4 K | 0.774 ± 0.016 | –
14.11 K | 0.8996 ± 0.017 | –
14.93 K | 1.051 ± 0.017 | –
15 K | 1.07 ± 0.02 | –
15.65 K | 1.193 ± 0.018 | –
16.38 K | 1.337 ± 0.019 | –
17.11 K | 1.492 ± 0.02 | –
17.84 K | 1.652 ± 0.021 | –
18.58 K | 1.814 ± 0.021 | –
19.33 K | 1.982 ± 0.022 | –
20 K | 2.125 ± 0.022 | –
20.08 K | 2.152 ± 0.022 | –
21.87 K | 2.524 ± 0.023 | –
24.35 K | 3.102 ± 0.025 | –
25 K | 3.246 ± 0.025 | –
26.84 K | 3.651 ± 0.025 | –
29.35 K | 4.206 ± 0.025 | –
30 K | 4.322 ± 0.049 | –
31.87 K | 4.729 ± 0.05 | –
34.41 K | 5.231 ± 0.051 | –
36.93 K | 5.723 ± 0.052 | –
39.46 K | 6.213 ± 0.052 | –
40 K | 6.304 ± 0.052 | –
41.98 K | 6.674 ± 0.053 | –
44.5 K | 7.12 ± 0.054 | –
47.01 K | 7.558 ± 0.055 | –
49.52 K | 8.018 ± 0.057 | –
50 K | 8.154 ± 0.057 | –
52.01 K | 8.514 ± 0.06 | –
54.5 K | 9.012 ± 0.06 | –
56.99 K | 9.486 ± 0.06 | –
59.48 K | 9.885 ± 0.06 | –
60 K | 9.968 ± 0.06 | –
62.01 K | 10.32 ± 0.06 | –
64.5 K | 10.83 ± 0.06 | –
66.98 K | 11.22 ± 0.07 | –
69.45 K | 11.66 ± 0.07 | –
70 K | 11.72 ± 0.07 | –
71.93 K | 12.02 ± 0.07 | –
74.43 K | 12.44 ± 0.07 | –
76.9 K | 12.74 ± 0.07 | –
79.38 K | 13.19 ± 0.07 | –
80 K | 13.39 ± 0.07 | –
81.85 K | 13.77 ± 0.07 | –
82.58 K | 13.86 ± 0.07 | –
84.31 K | 14.14 ± 0.07 | –
84.89 K | 14.3 ± 0.07 | –
87.37 K | 14.74 ± 0.07 | –
89.84 K | 15.12 ± 0.07 | –
90 K | 15.16 ± 0.22 | –
92.31 K | 15.57 ± 0.22 | –
94.78 K | 15.98 ± 0.22 | –
97.24 K | 16.41 ± 0.22 | –
99.71 K | 16.82 ± 0.22 | –
100 K | 16.89 ± 0.22 | –
102.17 K | 17.25 ± 0.22 | –
104.63 K | 17.71 ± 0.22 | –
107.09 K | 18.15 ± 0.22 | –
109.53 K | 18.67 ± 0.22 | –
110 K | 18.7 ± 0.22 | –
111.98 K | 19.03 ± 0.22 | –
114.42 K | 19.58 ± 0.22 | –
116.87 K | 19.92 ± 0.22 | –
119.31 K | 20.41 ± 0.22 | –
120 K | 20.48 ± 0.22 | –
121.79 K | 20.81 ± 0.22 | –
124.23 K | 21.21 ± 0.22 | –
126.67 K | 21.62 ± 0.22 | –
129.11 K | 22.03 ± 0.22 | –
130 K | 22.2 ± 0.22 | –
131.54 K | 22.45 ± 0.22 | –
133.98 K | 22.91 ± 0.22 | –
136.41 K | 23.27 ± 0.22 | –
138.85 K | 23.7 ± 0.22 | –
140 K | 23.89 ± 0.22 | –
141.28 K | 24.08 ± 0.22 | –
143.71 K | 24.5 ± 0.22 | –
146.14 K | 24.9 ± 0.22 | –
148.57 K | 25.31 ± 0.22 | –
150 K | 25.54 ± 0.22 | –
151 K | 25.71 ± 0.22 | –
153.43 K | 26.1 ± 0.22 | –
155.87 K | 26.52 ± 0.22 | –
158.32 K | 26.94 ± 0.22 | –
160 K | 27.2 ± 0.22 | –
160.81 K | 27.33 ± 0.22 | –
163.26 K | 27.73 ± 0.22 | –
165.71 K | 28.13 ± 0.22 | –
168.15 K | 28.55 ± 0.22 | –
170 K | 28.83 ± 0.23 | –
170.6 K | 28.97 ± 0.23 | –
173.05 K | 29.33 ± 0.23 | –
175.5 K | 29.73 ± 0.23 | –
177.94 K | 30.14 ± 0.23 | –
180 K | 30.47 ± 0.23 | –
180.39 K | 30.54 ± 0.23 | –
182.83 K | 30.96 ± 0.23 | –
185.28 K | 31.33 ± 0.23 | –
187.72 K | 31.71 ± 0.23 | –
190 K | 32.09 ± 0.23 | –
190.17 K | 32.11 ± 0.23 | –
192.61 K | 32.48 ± 0.23 | –
195.05 K | 32.9 ± 0.23 | –
197.5 K | 33.29 ± 0.23 | –
199.99 K | 33.7 ± 0.23 | –
200 K | 33.7 ± 0.23 | –
202.44 K | 34.08 ± 0.23 | –
204.88 K | 34.48 ± 0.23 | –
207.33 K | 34.88 ± 0.23 | –
210 K | 35.29 ± 0.23 | –
210.91 K | 35.46 ± 0.23 | –
213.05 K | 35.74 ± 0.23 | –
215.49 K | 36.17 ± 0.23 | –
217.93 K | 36.56 ± 0.23 | –
220 K | 36.86 ± 0.23 | –
220.38 K | 36.96 ± 0.24 | –
222.82 K | 37.34 ± 0.24 | –
225.26 K | 37.72 ± 0.24 | –
227.71 K | 38.06 ± 0.24 | –
230 K | 38.45 ± 0.24 | –
230.15 K | 38.5 ± 0.24 | –
232.58 K | 38.89 ± 0.24 | –
235.03 K | 39.22 ± 0.24 | –
237.47 K | 39.55 ± 0.24 | –
239.91 K | 39.99 ± 0.24 | –
240 K | 40.05 ± 0.24 | –
242.35 K | 40.38 ± 0.24 | –
244.78 K | 40.92 ± 0.24 | –
247.23 K | 41.27 ± 0.24 | –
249.73 K | 41.6 ± 0.24 | –
250 K | 41.64 ± 0.24 | –
252.17 K | 41.99 ± 0.24 | –
254.61 K | 42.32 ± 0.24 | –
257.04 K | 42.71 ± 0.24 | –
257.41 K | 42.2 ± 0.24 | –
259.48 K | 43.1 ± 0.24 | –
260 K | 43.16 ± 0.24 | –
261.91 K | 43.48 ± 0.24 | –
262.39 K | 43.37 ± 0.24 | –
264.34 K | 43.87 ± 0.24 | –
266.76 K | 44.33 ± 0.24 | –
269.18 K | 44.87 ± 0.24 | –
270 K | 44.55 ± 0.24 | –
271.59 K | 45.53 ± 0.25 | –
273.99 K | 47.53 ± 0.25 | –
274.34 K | – | 85.72 ± 0.25
276.82 K | 45.8 ± 0.25 | 85.38 ± 0.25
278.53 K | – | 85.14 ± 0.25
280 K | – | 84.97 ± 0.25
282.13 K | – | 84.72 ± 0.25
285.21 K | – | 84.64 ± 0.25
286.94 K | – | 84.47 ± 0.25
289.3 K | – | 84.14 ± 0.25
290 K | – | 84.05 ± 0.25
291.67 K | – | 83.97 ± 0.25
294.02 K | – | 83.81 ± 0.25
296.38 K | – | 83.72 ± 0.25
298.15 K | – | 83.47 ± 0.25
298.72 K | – | 83.56 ± 0.25
300 K | – | 83.39 ± 0.25
301.66 K | – | 83.39 ± 0.25
305.18 K | – | 83.14 ± 0.25
308.67 K | – | 83.08 ± 0.28
310 K | – | 82.96 ± 0.28
312.17 K | – | 82.92 ± 0.28
315.64 K | – | 82.85 ± 0.28
319.1 K | – | 82.78 ± 0.28
320 K | – | 82.7 ± 0.28
322.54 K | – | 82.69 ± 0.28
325.97 K | – | 82.58 ± 0.28
329.39 K | – | 82.62 ± 0.28
330 K | – | 82.52 ± 0.28
332.72 K | – | 82.55 ± 0.28
336.11 K | – | 82.57 ± 0.28
339.47 K | – | 82.65 ± 0.28
340 K | – | 82.67 ± 0.28
342.82 K | – | 82.74 ± 0.28
346.15 K | – | 82.71 ± 0.28
350 K | – | 82.8 ± 0.28
